Data published in ChEMBL document CHEMBL5214939, “Design, synthesis and biological evaluations of novel farnesoid X receptor (FXR) agonists” (Bioorg Med Chem Lett, 2022).
One block for each compound: values may come before it. Active and inactive are the calls of the source. The rule behind the calls is not given here.

How the values were obtained:
Bile acid receptor = target: T1, Bile acid receptor (Homo sapiens, UniProt Q96RI1); experiment: Agonist activity at FXR in HEK293T cells assessed as transcriptional activity by measuring […] by luciferase reporter assay; assay type: cell-based
T1 sequence (Q96RI1 whole entry): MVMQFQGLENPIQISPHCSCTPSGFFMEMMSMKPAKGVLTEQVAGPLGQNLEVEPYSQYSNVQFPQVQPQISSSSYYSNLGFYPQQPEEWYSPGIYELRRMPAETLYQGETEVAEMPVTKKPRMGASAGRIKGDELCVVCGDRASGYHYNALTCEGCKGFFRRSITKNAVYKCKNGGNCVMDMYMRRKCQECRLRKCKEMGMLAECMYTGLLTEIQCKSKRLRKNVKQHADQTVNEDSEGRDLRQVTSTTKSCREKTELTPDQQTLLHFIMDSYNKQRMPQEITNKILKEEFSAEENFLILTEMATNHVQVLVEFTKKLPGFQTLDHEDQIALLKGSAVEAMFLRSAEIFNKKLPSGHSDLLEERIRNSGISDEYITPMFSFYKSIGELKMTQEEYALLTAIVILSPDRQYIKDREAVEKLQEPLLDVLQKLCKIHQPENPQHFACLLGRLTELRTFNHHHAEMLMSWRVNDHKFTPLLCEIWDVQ

[1] = AUC (0 to t) in mouse at 100 mg/kg, po; assay type: ADME, organism-based; parameters: dose 100 mg/kg, route po; conditions: in vivo
[2] = Cmax in mouse at 100 mg/kg, po; assay type: ADME, organism-based; parameters: dose 100 mg/kg, route po; conditions: in vivo
Mus musculus [3] = species: Mus musculus; experiment: Protection against Con-A induced autoimmune hepatitis mouse model assessed as reduction in AST level; assay type: functional, organism-based
[4] = Half life in mouse at 100 mg/kg, po; assay type: ADME, organism-based; conditions: in vivo
Mus musculus [5] = species: Mus musculus; experiment: Protection against Con-A induced autoimmune hepatitis mouse model assessed as reduction in ALT level; assay type: functional, organism-based
[6] = AUCinfinity in mouse at 5 mg/kg, iv; assay type: ADME, organism-based; parameters: time infinity, dose 5 mg/kg, route iv; conditions: in vivo
[7] = AUC (0 to t) in mouse at 5 mg/kg, iv; assay type: ADME, organism-based; parameters: dose 5 mg/kg, route iv; conditions: in vivo
[8] = Tmax in mouse at 100 mg/kg, po; assay type: ADME, organism-based; conditions: in vivo
[9] = AUCinfinity in mouse at 100 mg/kg, po; assay type: ADME, organism-based; parameters: time infinity, dose 100 mg/kg, route po; conditions: in vivo
[10] = Clearance in mouse at 100 mg/kg, po or 5 mg/kg, iv; assay type: ADME, organism-based; conditions: in vivo
[11] = Oral bioavailability in mouse at 100 mg/kg; assay type: ADME, organism-based; conditions: in vivo
[12] = AUC (0 to t) in mouse at 20 mg/kg, po; assay type: ADME, organism-based; parameters: dose 20 mg/kg, route po; conditions: in vivo
[13] = Clearance in mouse at 20 mg/kg, po or 5 mg/kg, iv; assay type: ADME, organism-based; conditions: in vivo
[14] = Tmax in mouse at 20 mg/kg, po; assay type: ADME, organism-based; conditions: in vivo
[15] = AUCinfinity in mouse at 20 mg/kg, po; assay type: ADME, organism-based; parameters: time infinity, dose 20 mg/kg, route po; conditions: in vivo
[16] = Cmax in mouse at 20 mg/kg, po; assay type: ADME, organism-based; parameters: dose 20 mg/kg, route po; conditions: in vivo
[17] = Half life in mouse at 20 mg/kg, po; assay type: ADME, organism-based; conditions: in vivo
[18] = Oral bioavailability in mouse at 20 mg/kg; assay type: ADME, organism-based; conditions: in vivo

- EC50 (Bile acid receptor): 570 nM
Compound: CC(C)c1snc(-c2c(Cl)cccc2Cl)c1COc1ccc(/C=C/c2cccc(C(=O)O)c2)c(Cl)c1

- EC50 (Bile acid receptor): 510 nM
Compound: CC(C)c1snc(-c2c(Cl)cccc2Cl)c1COc1ccc(N(C)Cc2ccc(C(=O)O)s2)c(C(F)(F)F)n1

- EC50 (Bile acid receptor): 270 nM
- AUC(0-t) [1]: 5370 ng·h/mL
- Cmax [2]: 40200 ng/mL
- half-life [4]: 2.6 h
- AUC [6]: 5822 ng·h/mL
- AUC(0-t) [7]: 5760 ng·h/mL
- Tmax [8]: 0.5 h
- AUC [9]: 5415 ng·h/mL
- CL [10]: 14.3 mL/min/kg
- F [11]: 73%
Compound: CN(Cc1cccc(C(=O)O)c1)c1ccc(OCc2c(-c3c(Cl)cccc3Cl)nsc2C2CC2)nc1C(F)(F)F
- Activity (Mus musculus [3]): Active
- Activity (Mus musculus [5]): Active

- EC50 (Bile acid receptor): 1090 nM
Compound: CN(Cc1cccc(C(=O)NO)c1)c1ccc(OCc2c(-c3c(Cl)cccc3Cl)nsc2C2CC2)nc1C(F)(F)F

- EC50 (Bile acid receptor): 310 nM
Compound: CN(Cc1ccc(C(=O)O)cc1)c1ccc(OCc2c(-c3c(Cl)cccc3Cl)nsc2C2CC2)nc1C(F)(F)F
- Activity (Mus musculus [5]): Active

- EC50 (Bile acid receptor): > 30000 nM
Compound: CN(Cc1ccc(C(=O)NO)cc1)c1ccc(OCc2c(-c3c(Cl)cccc3Cl)nsc2C2CC2)nc1C(F)(F)F

- EC50 (Bile acid receptor): > 30000 nM
Compound: CC(C)c1snc(-c2c(Cl)cccc2Cl)c1COc1ccc(N(C)CC2CCCC(C(=O)O)C2)c(C(F)(F)F)n1 (centres undefined)

- EC50 (Bile acid receptor): 2160 nM
Compound: CCN(Cc1ccc(C(=O)O)cc1)c1ccc(OCc2c(-c3c(Cl)cccc3Cl)nsc2C(C)C)nc1C(F)(F)F

- AUC(0-t) [12]: 85200 ng·h/mL
- CL [13]: 26.3 mL/min/kg
- Tmax [14]: 0.5 h
- AUC [15]: 85283 ng·h/mL
- AUC [6]: 3162 ng·h/mL
- AUC(0-t) [7]: 3140 ng·h/mL
- Cmax [16]: 4787 ng/mL
- t1/2 [17]: 1.53 h
- F [18]: 42.81%
Compound: CC(C)c1onc(-c2c(Cl)cccc2Cl)c1COc1ccc(/C=C/c2cccc(C(=O)O)c2)c(Cl)c1

- EC50 (Bile acid receptor): 410 nM
Compound: CN(Cc1ccc(C(=O)O)cc1)c1ccc(OCc2c(-c3c(Cl)cccc3Cl)nsc2C2CC2)cc1C(F)(F)F
- Activity (Mus musculus [5]): Active

- EC50 (Bile acid receptor): 350 nM
Compound: CC(C)c1snc(-c2c(Cl)cccc2Cl)c1COc1ccc(N(C)Cc2ccc(C(=O)O)cc2)c(C(F)(F)F)n1
- Activity (Mus musculus [3]): Active
- Activity (Mus musculus [5]): Active
